According to US20180362488A1, “STEREOISOMER OF FLOCOUMAFEN, COMPOSITION AND RODENTICIDE BAIT COMPRISING SAME, AND METHOD FOR CONTROLLING TARGET RODENT PESTS” (priority 2015, published 2018):

Format: in vivo, Sprague-Dawley rats
Conditions: compared with enantiomer E4 and flocoumafen
Description: The configurational stereoisomers of flocoumafen are separated by high-pressure liquid chromatography using a LUX® Cellulose-4 chiral column (00F-4490-B0, Phenomenex, Le Pecq, France) as stationary phase and a mixture formed from acetonitrile (A) and water comprising 0.1% by volume of formic acid (B), with an AB volume ratio of 92/8, as mobile phase with a flow rate of the liquid mobile phase in the chromatography column of 0.25 mL/minute. 1 μL of extract to be analysed at a concentration of 1 μg/mL of acetonitrile is injected. Detection is performed by tandem mass spectrometry (MS/MS) in negative electrospray ionization (ESI) mode. The temperature of the nebulizer gas is 350° C. and its flow rate is 8 L/minute. The pressure of the nebulizer gas is brought to 2700 hPa. In particular, the MRM (“Multiple Reaction Monitoring”) transitions m/z 541.1→382.1 and m/z 541.1→161, corresponding to the flocoumafen signal, are analysed.
About 0.525 g (±0.025 g) of rat liver is weighed out accurately and placed in a 50 mL polypropylene tube. 10 mL of acetone are added and the suspension is homogenized using an Ultra-Turrax® homogenizer/disperser for a time of about 30 seconds. The homogenizer/disperser shaft is rinsed with hot water and then twice with 20 mL of acetone in a polypropylene tube. The homogenate is centrifuged for 5 minutes at a centrifugation speed of 3000 rpm (revolutions per minute). […]

Question: For `O=c1oc2ccccc2c(O)c1C1CC(c2ccc(OCc3ccc(C(F)(F)F)cc3)cc2)Cc2ccccc21` (single isomer, unassigned) [Enantiomer E2], which “Persistence in the liver of the male and female rats” value is on record?
Answer: Its value is “lower than the persistence of enantiomer E4 of said diastereoisomer D1,4 and lower than the persistence of flocoumafen”.
